Experimental data from PubChem BioAssay (NCI).
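1) Cells in 96-well plates. 2) Compound, 48 h, 5 concentrations. 3) Linear interpolation between surrounding doses. 4) Unreached endpoint = highest concentration. Abbreviation: GI50, concentration required for 50% inhibition of growth. At the TGI there is no net growth.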 *1 amine or outer side, *2 acyl side, *3 side chain or, on linkers, in order; H or OH if unused. Where a SMILES comes first, the peptide text is derived from it. Bridges are numbered along the chain shown (N, C = ends). [ ]: non-standard residue; d: D form. The star is where a group is joined. Phe(3-Me) = Cc1cccc(C[C@H](N)C(=O)O)c1; NH(4-Cl-2-F-phenyl) = Fc1cc(Cl)ccc1N*; Pro(4R-Me) = C[C@H]1CN[C@H](C(=O)O)C1; Hyp = O=C(O)[C@@H]1C[C@@H](O)CN1; aThr = C[C@H](O)[C@H](N)C(=O)O; Pip = O=C(O)[C@@H]1CCCCN1; CO = O=C([*:1])[*:2]

What was measured:
Test in all cases: growth of human tumour cells (NCI), 48 h
CAKI-1 renal = tested on: CAKI-1 renal
CCRF-CEM leukemia = tested on: CCRF-CEM leukemia
HCC-2998 colon = tested on: HCC-2998 colon
HCT-116 colon = tested on: HCT-116 colon
HCT-15 colon = tested on: HCT-15 colon
MDA-MB-231 breast = tested on: MDA-MB-231 breast
SF-539 CNS = tested on: SF-539 CNS
SK-MEL-5 melanoma = tested on: SK-MEL-5 melanoma
SR leukemia = tested on: SR leukemia
TK-10 renal = tested on: TK-10 renal

Compound | GI50 (CAKI-1 renal) | TGI (CAKI-1 renal) | GI50 (CCRF-CEM leukemia) | TGI (CCRF-CEM leukemia) | GI50 (HCC-2998 colon) | TGI (HCC-2998 colon) | GI50 (HCT-116 colon) | TGI (HCT-116 colon) | GI50 (HCT-15 colon) | TGI (HCT-15 colon) | GI50 (MDA-MB-231 breast) | TGI (MDA-MB-231 breast) | GI50 (SF-539 CNS) | TGI (SF-539 CNS) | GI50 (SK-MEL-5 melanoma) | TGI (SK-MEL-5 melanoma) | GI50 (SR leukemia) | TGI (SR leukemia) | GI50 (TK-10 renal) | TGI (TK-10 renal)
COc1ccc(C(=O)c2cc(OC)c(OC)c(OC)c2)cc1O | 0.363 µM | > 100 µM | 0.0308 µM | > 100 µM | 0.0832 µM | > 100 µM | 0.0376 µM | > 100 µM | < 0.01 µM | > 100 µM | 0.0559 µM | > 100 µM | 0.0112 µM | 0.0557 µM | 0.0439 µM | 0.315 µM | < 0.01 µM | > 100 µM | > 61.5 µM | > 100 µM
NC(=NC1CCCCCC1)c1ccc(N2CCN(c3ccc(C(N)=NC4CCCCCC4)cc3)CC2)cc1 | > 50 µM | > 50 µM | 10.5 µM | 46.5 µM | 8.9 µM | > 50 µM | 10.2 µM | 48.8 µM | 24.3 µM | > 50 µM | 8.39 µM | 29 µM |  |  | 1.33 µM | 6.76 µM | 6.64 µM | 19.8 µM | 14.6 µM | > 50 µM
C=C1C(=O)O[C@@H]2C[C@@H](C)[C@@H]3[C@@H](OC4OC(COC(C)=O)C(O)C(O)C4O)CC(=O)[C@@]3(C)C[C@H]12 (stereo partly drawn) |  | 1.01 µM |  | 16.1 µM |  | 3.14 µM |  | 1.88 µM |  | 0.582 µM |  | 8.92 µM |  | 6.27 µM |  | 4.86 µM |  | 7.53 µM |  | 3.36 µM
COc1cc(-c2cc(-c3nc4ccccc4[nH]3)[nH]n2)cc(OC)c1OC | 2.24 µM | 14.4 µM | 2.12 µM | 9.96 µM | 7.1 µM | 21.5 µM | 3.16 µM | 16.8 µM | 3.43 µM | 24.4 µM | 3.22 µM | 15.8 µM | 5.11 µM | 18.9 µM | 1.34 µM | 3.94 µM | 3.32 µM | > 100 µM | 4.07 µM | 22.8 µM
O=C(Nc1ccc(Nc2ccncc2)cc1)c1ccc(Nc2ccnc3ccc([N+](=O)[O-])cc23)cc1 | > 100 µM | > 100 µM | > 100 µM | > 100 µM | > 100 µM | > 100 µM | > 100 µM | > 100 µM | > 100 µM | > 100 µM | 78.2 µM | > 100 µM | > 100 µM | > 100 µM | 71.4 µM | > 100 µM | 7.53 µM | > 100 µM | > 100 µM | > 100 µM
COc1ccc(/C=C(\C#N)c2cc(OC)c3c(c2)OCO3)cc1 | 0.465 µM | 90.8 µM | 0.0226 µM | > 100 µM | 0.0264 µM | 1.41 µM | < 0.0121 µM | 4.39 µM | 0.0118 µM | > 73.6 µM | 0.0553 µM | 46.3 µM | < 0.0131 µM | 11.5 µM | 0.0101 µM | 0.245 µM | < 0.01 µM | > 100 µM | 0.56 µM | 41.1 µM
COC[C@H]1OC(=O)c2coc3c2[C@@]1(C)C1=C(C3=O)[C@@H]2CCC(=O)[C@@]2(C)C[C@H]1OC(C)=O |  |  |  | > 53.5 µM |  | 20 µM |  | > 100 µM |  | > 100 µM | 14.4 µM | > 100 µM |  | 31 µM |  | 61 µM |  | 31.3 µM |  | > 100 µM
CCC(C)/C=C(C)/C=C/C(=O)c1c(O)c(-c2ccc(O)cc2)c[nH]c1=O (stereo not drawn) | 2.74 µM | 12.6 µM | 2.58 µM | 19.7 µM | 3.75 µM | 14.8 µM | 3.39 µM | 13.1 µM | 2.4 µM | 12.6 µM | 5.09 µM | 21.4 µM | 3.3 µM | 12.5 µM | 4.29 µM | 16.7 µM | 2.39 µM | 6.49 µM | 4.32 µM | 15.3 µM
Cc1c(Cl)cccc1NC(=O)c1sc2nc3c(cc2c1N)CCCCCC3 |  |  | 0.176 µM | > 50 µM | 1.39 µM | > 50 µM | 0.195 µM | > 50 µM | 0.156 µM | > 50 µM | 0.356 µM | > 50 µM | 0.168 µM | 7.93 µM | 0.177 µM | 10.5 µM | 0.101 µM | > 50 µM | 10.7 µM | 47.4 µM
Cc1ccc(NC2=C(Sc3ccc(Cl)cc3)C(=O)N(Cc3ccccc3)C2=O)cc1Cl | 3.44 µM | 15.9 µM | 11.1 µM | 23.1 µM | 19.6 µM | > 100 µM | 3.6 µM | 15 µM | 10.6 µM | > 100 µM | 3.84 µM | 14.7 µM | 3.45 µM | 16.9 µM | 5.84 µM | 20.3 µM | 2.86 µM | 8.12 µM | 11.7 µM | 68.3 µM
O=C(O)c1ccc(NS(=O)(=O)c2cccc3cccnc23)cc1 | > 100 µM | > 100 µM | > 100 µM | > 100 µM | > 100 µM | > 100 µM | > 100 µM | > 100 µM | > 100 µM | > 100 µM | > 100 µM | > 100 µM | > 100 µM | > 100 µM | > 100 µM | > 100 µM | > 100 µM | > 100 µM |  | 
CCc1oc2ccccc2c1C(=O)c1cc(Br)c(O)c(Br)c1 |  | > 100 µM |  | 55.4 µM |  |  |  | 55.7 µM |  | 76.2 µM |  | 44.7 µM |  | 32.9 µM |  | 32.2 µM |  | 55.4 µM |  | 64.9 µM
Cc1cccc(C[C@H](NC(=O)Nc2ccc(Cl)cc2F)C(=O)N[C@@H]2C(=O)N3C[C@H](O)C[C@H]3C(=O)N3CCCC[C@H]3C(=O)N[C@@H](C)C(=O)N3C[C@H](C)C[C@H]3C(=O)O[C@H]2C)c1 ({NH(4-Cl-2-F-phenyl)-CO}-[Phe(3-Me)][aThr][Hyp][Pip]A[Pro(4R-Me)]; ester 2-C) | 0.807 µM | 5.58 µM | 0.52 µM | 12 µM | 0.468 µM | 1.77 µM | 0.404 µM | 1.66 µM | 1.93 µM | 4.34 µM | 0.429 µM | 1.71 µM | 0.733 µM | 2.29 µM | 0.492 µM | 1.7 µM | 0.546 µM | 3.55 µM | 1.78 µM | 10.1 µM
